Experimental data from patent US20240325544A1, “CATIONIC LIPID FOR COVALENT MODIFICATION OF PEPTIDES” (PharmalN Corporation, priority 2023, published 2024).
Bridge positions count the residues as written; N and C are the ends. Square brackets hold non-standard residues; d marks the D form. Peptide text beside a SMILES is read from it. * marks the point of attachment. Palmitoyl = CCCCCCCCCCCCCCCC(=O)*; Dap = NC[C@H](N)C(=O)O; AEEA = NCCOCCOCC(=O)O

Assays:
human NPRB = biological target: T1, human NPRB (Homo sapiens, UniProt P20594); experiment: Fluorescence polarization (FP) assay with CNP-F* probe, NPRB; format: binding; settings: 150 nM test article, 5 nM CNP-F*, 50 nM human NPRB
T1 construct: NPRB R1-T433, (GenBank Accn. #NP_003986.2); made in house; host or cells: Expi293 cells
T1 sequence (P20594 23-455): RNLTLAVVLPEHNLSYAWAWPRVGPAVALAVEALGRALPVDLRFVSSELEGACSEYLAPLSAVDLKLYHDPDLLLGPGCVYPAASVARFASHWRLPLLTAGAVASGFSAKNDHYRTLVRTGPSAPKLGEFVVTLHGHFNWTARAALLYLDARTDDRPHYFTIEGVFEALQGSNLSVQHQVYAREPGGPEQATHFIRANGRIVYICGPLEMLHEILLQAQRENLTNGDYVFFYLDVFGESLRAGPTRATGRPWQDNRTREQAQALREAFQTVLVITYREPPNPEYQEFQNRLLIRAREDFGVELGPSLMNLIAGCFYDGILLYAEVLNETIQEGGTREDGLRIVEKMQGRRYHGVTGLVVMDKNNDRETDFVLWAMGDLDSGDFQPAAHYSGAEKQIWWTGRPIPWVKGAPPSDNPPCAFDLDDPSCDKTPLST
Description: Error bars represent standard error of the mean. […] NO.
In the presence of [SEQ ID.
The CNP-F* probe was incubated at a final concentration of 5 nM in the presence of 50 nM human NPRB or NPRC in an assay buffer containing PBS, pH 7.4 and 0.01% Triton X-100. A […] volume of CNP-F* probe and NPR were dispensed into a black 96-well Costar flat-bottom polystyrene plate prior to FP measurement. Next, […] volume of SEQ ID. No. 31 (final concentration 150 nM) was added to the premixed probe and NPR. The plate was incubated at room temperature for 10 min. Fluorescence polarization was then measured on Flexstation 3 (excitation wavelength: 480 nm; emission wavelength: 525 nm and cutoff at 515 nm).
CNP-F* was prepared using solid phase peptide synthesis. […] Next, the crude linear peptide was cleavage with 95% TFA in the presence of carbocation scavengers and ether precipitation.

[1] = tested on: E0771 breast cancer cells; experiment: Orthotopic mouse model of bone metastasis using breast cancer E0771 cells (FIG. 10); format: in vivo, mice
Description: FIGS. 10A-10B. […] Error bars indicate standard error of the mean. […] Also illustrated in this diagram are the corresponding schedules for each treatment administered throughout this study. From tumor implantation, SEQ ID NO: 31 treated groups (2, 3, 6, and 7) were dosed SC (0.3 mg/kg/0.1 μmol/kg in buffer 15 mM succinate, 4% (w/v) D-mannitol, 10 mM hydoxypropyl-beta-cyclodextrin pH 4.4) on Days 5-9, 12-16, 19-23, and 26-29; aPD1 treated groups (3, 5, and 7) were dosed IP (5 mg/kg) on Days 5, 7, 12, and 14; and irradiated groups (4, 5, 6, and 7) received buffer and 5 Gy of X-ray radiation in three sets at the bone on Days 5, 8, and 12. Survival was observed until Day 33, following scheduled sacrifice of remaining mice. At this point, tumor sizes were measured using calipers. […] All groups were significant compared to the control group, so statistical analysis was based on Log-rank (Mantel-Cox) test against group 5 (radiation+aPD1) using GraphPad Prism.
Animal care and treatment: Female C57BL/6J mice (6 weeks-old) were purchased from Oriental Bioservice (Kobe, Japan) and maintained under a 12-hour light/12-hour dark cycle with free access to water and standard mouse diet (CRF diet; Oriental Yeast Co., Ltd, Tokyo Japan). Implantation and drug administration: Mice were orthotopically implanted with E0771 breast cancer cells (Cosmo Bio Tokyo, Japan; 250,000 cells/mouse in RPMI1640 medium (Fujifilm, Tokyo Japan)) in their left mammary gland and E0771 mouse breast cancer cells (500,000 cells/mouse in 50% Matrigel (Corning, NY, USA, #354234)) in their femur. Mice were then randomized into several treatment groups: 1) control (n=5), 2) SEQ ID NO: 31 (n=5), 3) SEQ ID NO: 31 and aPD1 (n=5), 4) radiation (n=6), 5) radiation and aPD1 (n=5), 6) SEQ ID NO: 31 and radiation (n=6), 7) SEQ ID NO: 31, radiation, and aPD1 (n=6). […] Survival was monitored up to Day 33 (FIG. 10B) post cell inoculation, and following scheduled sacrifice of the remaining mice, tumors were harvested, and sizes were measured using calipers. […]

CCCCCCCCCCCCCCCC(=O)NCCOCCOCC(=O)NCCOCCOCC(=O)NCCOCCOCC(=O)N[C@@H](CN)C(=O)N[C@@H](CN)C(=O)NCC(=O)N[C@@H](CC(C)C)C(=O)N[C@@H](CO)C(=O)N[C@@H](CCCCN)C(=O)NCC(=O)N[C@H]1CSSC[C@@H](C(=O)O)NC(=O)CNC(=O)[C@H](CC(C)C)NC(=O)CNC(=O)[C@H](CO)NC(=O)[C@H](CCC(N)=O)NC(=O)[C@H](CO)NC(=O)CNC(=O)[C@H]([C@@H](C)CC)NC(=O)[C@H](CCCNC(=N)N)NC(=O)[C@H](CC(=O)O)NC(=O)[C@H](CC(C)C)NC(=O)[C@H](CCCCN)NC(=O)[C@H](CC(C)C)NC(=O)CNC(=O)[C@H](Cc2ccccc2)NC1=O [SEQ ID NO: 31] ({Palmitoyl-AEEA-AEEA-AEEA}-[Dap][Dap]GLSKGCFGLKLDRIGSQSGLGC-OH; disulfide 8-24; C-terminus assumed)
Binding to NPRB (FP signal of CNP-F* probe) (human NPRB): low FP signal demonstrates binding | Incidence of bone metastasis ([1]; addition of SEQ ID NO: 31 in all its respective groups): reduced the incidence of bone metastasis | Mice tumor free in the bone ([1]; group 6: SEQ ID NO: 31 + radiation): 5 out of 6 | Probability of survival vs group 5 (radiation+aPD1) ([1]; group 7: SEQ ID NO: 31 0.3 mg/kg SC + radiation + aPD1, to Day 33): significant improvement in survival | Mice tumor free in the bone ([1]; group 7: SEQ ID NO: 31 + radiation + aPD1): 6 out of 6
